Experimental data: patent US9551711B2, “Compositions and methods for detecting nitration of PKG-1α and methods of use thereof” (Augusta University Research Institute, Inc., priority 2013, dated 2017)
Residue numbers refer to the chain shown, from its start.

Key:
PKG-1α [1] = test: PKG-1α nitration (IP, 3-NT immunoblot) in transfected HEK-293T cells; format: cell-based, human; conditions: SIN-1 500 μM, 30 min
Experimental: Cells were homogenized in 3× weight/volume of IP buffer (25 mM Hepes, pH 7.5, 150 mM NaCl, 1% NP-40, 10 mM MgCl2, 1 mM EDTA, 2% glycerol, supplemented with protease inhibitor). The homogenates were then centrifuged at 20,000 g at 4° C. for 20 min, the supernatant was collected, and the protein concentration was quantified by the Bio-Rad DC Protein Assay. To 1000 μg of total protein, 4 μg of antibody against PKG-1α was added; the volume was brought to 1 ml with IP buffer, and the mixture was incubated at 4° C. overnight. To precipitate the bound protein, 30 μl of protein G plus agarose suspension (EMD biosciences, Inc., San Diego, Calif.) was added, and the samples were incubated for 2 h at 4° C. To collect the bead-bound antibody, the samples were then centrifuged at 2000 g for 5 min at 4° C., the supernatant was removed, and the beads were washed 3× with 500 μl of IP buffer. To the samples, 30 μl of 2× Laemmli buffer was added, and the samples were boiled for 5 min and then resolved using 4-20% Tris-SDS-Hepes PAGE. The membrane was then probed for 3-nitrotyrosine (1:100 dilution), as described above. The IP efficiency was normalized by re-probing for PKG-1α (1:500).
(§1) To determine the role of tyrosine 247 and tyrosine 425 in mediating the nitration dependent inhibition of PKG-1α kinase activity, Y247F- and Y425F-PKG-1α mutants were generated and expressed in HEK-293T cells. HEK-293T cells were transiently transfected with expression plasmids containing WT-, Y247F-, or Y425F-PKG-1α for 48 h. […] Protein extracts were immunoprecipitated using an antibody raised against PKG-1α and the level of nitrated PKG-1α determined by probing the membranes with an antiserum raised against 3-NT. The blots were then stripped and re-probed for PKG-1α to normalize for the efficiency of the immunoprecipitation.

PKG-1α [2] = target: T1, PKG-1α (Homo sapiens, UniProt Q13976, Y425F); test: PKG activity in transfected HEK-293T cells; format: cell-based; conditions: HEK-293T expressing Y425F-PKG-1α; SIN-1 500 μM, 30 min
T1 construct: an expression plasmid containing a full length WT-PKG-1α cDNA; expressed in transfected cells; host or cells: HEK-293T
T1 sequence (Q13976 2-671 Y425F): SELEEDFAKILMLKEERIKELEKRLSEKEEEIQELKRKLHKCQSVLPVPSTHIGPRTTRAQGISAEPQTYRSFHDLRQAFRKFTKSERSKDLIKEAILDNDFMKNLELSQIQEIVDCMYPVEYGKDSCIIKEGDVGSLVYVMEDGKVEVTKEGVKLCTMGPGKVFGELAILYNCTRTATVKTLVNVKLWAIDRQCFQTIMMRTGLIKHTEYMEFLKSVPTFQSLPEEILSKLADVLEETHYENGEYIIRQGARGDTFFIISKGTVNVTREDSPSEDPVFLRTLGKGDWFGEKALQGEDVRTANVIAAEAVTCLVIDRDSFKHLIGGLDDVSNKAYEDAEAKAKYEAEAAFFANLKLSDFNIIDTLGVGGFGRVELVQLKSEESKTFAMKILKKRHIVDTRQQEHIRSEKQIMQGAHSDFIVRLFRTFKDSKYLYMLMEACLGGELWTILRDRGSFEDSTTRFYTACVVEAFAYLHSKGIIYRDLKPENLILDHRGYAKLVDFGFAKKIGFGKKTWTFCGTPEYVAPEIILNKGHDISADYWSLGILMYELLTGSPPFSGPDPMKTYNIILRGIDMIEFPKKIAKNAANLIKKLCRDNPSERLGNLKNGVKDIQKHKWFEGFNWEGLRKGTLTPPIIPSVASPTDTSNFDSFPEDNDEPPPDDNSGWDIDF
Experimental: as §1
(§2) Total PKG activity was determined using a non-radioactive immunoassay in cell lysates, according to the manufacturer's directions. […]
(§3) After incubation for 30 min at 30° C. to allow the phosphorylation of the bound substrate, an HRP conjugated anti-phosphothreonine specific antibody was added to convert a chromogenic substrate to a colorimetric substrate that was subsequently read spectrophotometrically at 450 nm. The change in absorbance reflected the relative activity of PKG in the sample. […] The kinetic constants were determined using nonlinear regression (curve fit) analysis (GraphPad Prism Software Inc.).

PKG-1α [3] = test: PKG activity in transfected HEK-293T cells; format: cell-based, human; conditions: HEK-293T; SIN-1 500 μM, 30 min
Experimental: as §1, §2, §3

PKG-1α [4] = target: T2, PKG-1α (Homo sapiens, UniProt Q13976, Y247F); test: PKG activity in transfected HEK-293T cells; format: cell-based; set-up: made in house; host or cells: HEK-293T; conditions: HEK-293T expressing Y247F-PKG-1α; SIN-1 500 μM, 30 min
T2 sequence (Q13976 2-671 Y247F): T1 sequence (Q13976 2-671 Y425F) with Y246F, F424Y
Experimental: as §1, §2, §3

Substance: 3-morpholinosydnonimine N-ethylcarbamide [SIN-1]
- nitration of PKG-1α (3-NT/PKG-1α) (PKG-1α [1]; HEK-293T expressing WT-PKG-1α): significantly increased
- nitration of PKG-1α (3-NT/PKG-1α) (PKG-1α [1]; HEK-293T expressing Y247F-PKG-1α): no significant increases
- nitration of PKG-1α (3-NT/PKG-1α) (PKG-1α [1]; HEK-293T expressing Y425F-PKG-1α): no significant increases
- cGMP dependent PKG activity (PKG-1α [2]): attenuated
- cGMP-independent PKG activity (PKG-1α [3]): did not alter
- cGMP dependent PKG activity (PKG-1α [4]): unaffected
